# Experimental data as given in patent US7342122B2, “Bisphosphonate complexes” (priority 2003, dated 2008).
# Experiments:
# [1] = test system: A549; assay: Cell growth inhibition, lung cancer cell line A549; type: cell-based
# Method: (§1) KB cells were purchased from Human Science Research Resource Bank (Osaka, Japan). The cells were cultured in Earle's MEM (GIBCO BRL) containing 10% FBS (Bio Whittaker) at 37° C. under 5% CO2. After 24 hours the test compounds were added to the cells at the indicated concentrations. 72 hours later the cells were stained with tripan blue and counted manually. IC50 is calculated as the concentration (aqueous solution) of complex required to inhibit growth of cells by 50%.
# (§2) In a similar fashion a representative number of examples of compounds of the invention were tested for their ability to inhibit the growth/proliferation of cell types representing a number of different cancers. The results are provided in Tables 4-13, below, which provide the Inhibition Constants (IC50, μM) for each compound across various cell lines.
# [2] = test system: MKN7; assay: Cell growth inhibition, human stomach cancer MKN7; type: cell-based
# Method: as §1, §2
# [3] = test system: NCI-H460; assay: Cell growth inhibition, lung cancer cell line NCI-H460; type: cell-based
# Method: as §1, §2
# [4] = test system: OVCAR-3; assay: Cell growth inhibition, ovarian cancer cell line OVCAR-3; type: cell-based; conditions: OVCAR-3, ovarian cancer cell line
# Method: as §1, §2
# [5] = test system: SNB-78; assay: Cell growth inhibition, brain cancer cell line SNB-78; type: cell-based; conditions: SNB-78, brain cancer cell line
# Method: as §1, §2
# [6] = test system: St-4; assay: Cell growth inhibition, human stomach cancer St-4; type: cell-based; conditions: St-4, human stomach cancer
# Method: as §1, §2
# [7] = test system: OVCAR-5; assay: Cell growth inhibition, ovarian cancer cell line OVCAR-5; type: cell-based; conditions: OVCAR-5, ovarian cancer cell line
# Method: as §1, §2
# [8] = test system: HCT-116; assay: Cell growth inhibition, colon cancer cell line HCT-116; type: cell-based; conditions: HCT-116, colon cancer cell line
# Method: as §1, §2
# [9] = test system: OVCAR-4; assay: Cell growth inhibition, ovarian cancer cell line OVCAR-4; type: cell-based; conditions: OVCAR-4, ovarian cancer cell line
# Method: as §1, §2
# [10] = test system: MKN74; assay: Cell growth inhibition, human stomach cancer MKN74; type: cell-based
# Method: as §1, §2
# [11] = test system: NCI-H23; assay: Cell growth inhibition, lung cancer cell line NCI-H23; type: cell-based
# Method: as §1, §2
# [12] = test system: U251; assay: Cell growth inhibition, brain cancer cell line U251; type: cell-based
# Method: as §1, §2
# [13] = test system: SNB-75; assay: Cell growth inhibition, brain cancer cell line SNB-75; type: cell-based; conditions: SNB-75, brain cancer cell line
# Method: as §1, §2
# [14] = test system: MCF-7; assay: Cell growth inhibition, breast cancer cell line MCF-7; type: cell-based; conditions: MCF-7, breast cancer cell line
# Method: as §1, §2
# [15] = test system: MDA-MB-231; assay: Cell growth inhibition, breast cancer cell line MDA-MB-231; type: cell-based; conditions: MDA-MB-231, breast cancer cell line
# Method: as §1, §2
# [16] = test system: HBC-4; assay: Cell growth inhibition, breast cancer cell line HBC-4; type: cell-based; conditions: HBC-4, breast cancer cell line
# Method: as §1, §2
# [17] = test system: DU-145; assay: Cell growth inhibition, prostatic cancer DU-145; type: cell-based, human; conditions: DU-145, prostatic cancer
# Method: as §1, §2
# [18] = test system: MKN1; assay: Cell growth inhibition, human stomach cancer MKN1; type: cell-based
# Method: as §1, §2
# [19] = test system: DMS273; assay: Cell growth inhibition, lung cancer cell line DMS273; type: cell-based
# Method: as §1, §2
# [20] = test system: MKN45; assay: Cell growth inhibition, human stomach cancer MKN45; type: cell-based
# Method: as §1, §2
# [21] = test system: BSY-1; assay: Cell growth inhibition, breast cancer cell line BSY-1; type: cell-based; conditions: BSY-1, breast cancer cell line
# Method: as §1, §2
# [22] = test system: SF-295; assay: Cell growth inhibition, brain cancer cell line SF-295; type: cell-based; conditions: SF-295, brain cancer cell line
# Method: as §1, §2
# [23] = test system: all cell types (cancer cell lines of Tables 4-12); assay: Cell growth inhibition, mean over all cell types of the panel; type: cell-based; conditions: mean over all cell lines of Tables 4-12
# Method: as §1, §2
# [24] = test system: LOX-IMVI; assay: Cell growth inhibition, melanoma cell line LOX-IMVI; type: cell-based
# Method: as §1, §2
# [25] = test system: ACHN; assay: Cell growth inhibition, renal cancer ACHN; type: cell-based
# Method: as §1, §2
# [26] = test system: SF-539; assay: Cell growth inhibition, brain cancer cell line SF-539; type: cell-based; conditions: SF-539, brain cancer cell line
# Method: as §1, §2
# [27] = test system: HCC2998; assay: Cell growth inhibition, colon cancer cell line HCC2998; type: cell-based
# Method: as §1, §2
# [28] = test system: SK-OV-3; assay: Cell growth inhibition, ovarian cancer cell line SK-OV-3; type: cell-based; conditions: SK-OV-3, ovarian cancer cell line
# Method: as §1, §2
# [29] = test system: OVCAR-8; assay: Cell growth inhibition, ovarian cancer cell line OVCAR-8; type: cell-based; conditions: OVCAR-8, ovarian cancer cell line
# Method: as §1, §2
# [30] = test system: NCI-H522; assay: Cell growth inhibition, lung cancer cell line NCI-H522; type: cell-based
# Method: as §1, §2
# [31] = test system: DMS114; assay: Cell growth inhibition, lung cancer cell line DMS114; type: cell-based
# Method: as §1, §2
# [32] = test system: RXF-631L; assay: Cell growth inhibition, renal cancer RXF-631L; type: cell-based
# Method: as §1, §2
# [33] = test system: HBC-5; assay: Cell growth inhibition, breast cancer cell line HBC-5; type: cell-based; conditions: HBC-5, breast cancer cell line
# Method: as §1, §2
# [34] = test system: NCI-H226; assay: Cell growth inhibition, lung cancer cell line NCI-H226; type: cell-based
# Method: as §1, §2
# [35] = test system: PC-3; assay: Cell growth inhibition, prostatic cancer PC-3; type: cell-based; conditions: PC-3, prostatic cancer
# Method: as §1, §2
# [36] = test system: HT-29; assay: Cell growth inhibition, colon cancer cell line HT-29; type: cell-based; conditions: HT-29, colon cancer cell line
# Method: as §1, §2
# [37] = test system: HCT-15; assay: Cell growth inhibition, colon cancer cell line HCT-15; type: cell-based; conditions: HCT-15, colon cancer cell line
# Method: as §1, §2
# [38] = test system: SF-268; assay: Cell growth inhibition, brain cancer cell line SF-268; type: cell-based; conditions: SF-268, brain cancer cell line
# Method: as §1, §2
# [39] = test system: KM-12; assay: Cell growth inhibition, colon cancer cell line KM-12; type: cell-based; conditions: KM-12, colon cancer cell line
# Method: as §1, §2
# [40] = test system: MKN28; assay: Cell growth inhibition, human stomach cancer MKN28; type: cell-based
# Method: as §1, §2
Compound,log10 IC50 (M) [1],log10 IC50 (M) [2],log10 IC50 (M) [3],log10 IC50 (M) [4],log10 IC50 (M) [5],log10 IC50 (M) [6],log10 IC50 (M) [7],log10 IC50 (M) [8],log10 IC50 (M) [9],log10 IC50 (M) [10],log10 IC50 (M) [11],log10 IC50 (M) [12],log10 IC50 (M) [13],log10 IC50 (M) [14],log10 IC50 (M) [15],log10 IC50 (M) [16],log10 IC50 (M) [17],log10 IC50 (M) [18],log10 IC50 (M) [19],log10 IC50 (M) [20],other results
"[Cl-].[Cl-].c1cc[n+]2c(c1)-c1cccc[n+]1[Pt-2]21[NH2+]CCC[NH+]1Cc1c2ccccc2cc2ccccc12 [Example 7, Pt(bpy)(AtC3)]",-5.68,-5.62,-5.71,-5.68,-5.54,-5.61,-5.8,-5.72,-5.7,-5.63,-5.53,-5.66,-5.59,-5.69,-5.78,-5.76,-5.73,-5.6,-5.68,-5.63,log10 IC50 (M) [21]: -5.89; log10 IC50 (M) [22]: -5.62; log10 IC50 (M) [23]: -5.68; log10 IC50 (M) [24]: -5.76; log10 IC50 (M) [25]: -5.67; log10 IC50 (M) [26]: -5.75; log10 IC50 (M) [27]: -5.7; log10 IC50 (M) [28]: -5.61; log10 IC50 (M) [29]: -5.52; log10 IC50 (M) [30]: -5.77; log10 IC50 (M) [31]: -5.76; log10 IC50 (M) [32]: -5.67; log10 IC50 (M) [33]: -5.89; log10 IC50 (M) [34]: -5.64; log10 IC50 (M) [35]: -5.59; log10 IC50 (M) [36]: -5.69; log10 IC50 (M) [37]: -5.56; log10 IC50 (M) [38]: -5.62; log10 IC50 (M) [39]: -5.69; log10 IC50 (M) [40]: -5.64
cis-Pt (NH3)2(Pyrophosphate) [Example 8],-4.79,-4.76,-5.22,-4.69,-4.61,-4.61,-4.52,-4.58,-4.83,-4.5,-5.2,-4.64,-4.93,-4.77,-4.35,-4.83,-5.29,-5.18,-4.97,-4.91,log10 IC50 (M) [21]: -5.2; log10 IC50 (M) [22]: -5.22; log10 IC50 (M) [23]: -4.83; log10 IC50 (M) [24]: -4.85; log10 IC50 (M) [25]: -5.37; log10 IC50 (M) [26]: -5.17; log10 IC50 (M) [27]: -4.57; log10 IC50 (M) [28]: -4.65; log10 IC50 (M) [29]: -4.72; log10 IC50 (M) [30]: -5.16; log10 IC50 (M) [31]: -4.85; log10 IC50 (M) [32]: -4.74; log10 IC50 (M) [33]: -5.57; log10 IC50 (M) [34]: -4.64; log10 IC50 (M) [35]: -4.45; log10 IC50 (M) [36]: -4.44; log10 IC50 (M) [37]: -4.51; log10 IC50 (M) [38]: -5.11; log10 IC50 (M) [39]: -4.43; log10 IC50 (M) [40]: -4.52
